According to patent publication US20040072738A1, “Analogues of thiocoraline and be-22179” (priority 2000, published 2004):
Converted amounts (≈) assume the structure as drawn. Bridge positions count the residues as written; N and C are the ends. Square brackets hold non-standard residues; d marks the D form. Peptide text beside a SMILES is read from it. I, II: the chains in the order shown. * marks the point of attachment. Quinaldoyl(3-OH) = O=C(c1nc2ccccc2cc1O)*; NMeC = CN[C@@H](CS)C(=O)O

Tests used:
DNA polymerase α = biological target: T1, DNA polymerase α (Homo sapiens, UniProt P09884); details: at concentrations that inhibit cell cycle progression and clonogenicity; cited from earlier work
T1 sequence (P09884 1-1462): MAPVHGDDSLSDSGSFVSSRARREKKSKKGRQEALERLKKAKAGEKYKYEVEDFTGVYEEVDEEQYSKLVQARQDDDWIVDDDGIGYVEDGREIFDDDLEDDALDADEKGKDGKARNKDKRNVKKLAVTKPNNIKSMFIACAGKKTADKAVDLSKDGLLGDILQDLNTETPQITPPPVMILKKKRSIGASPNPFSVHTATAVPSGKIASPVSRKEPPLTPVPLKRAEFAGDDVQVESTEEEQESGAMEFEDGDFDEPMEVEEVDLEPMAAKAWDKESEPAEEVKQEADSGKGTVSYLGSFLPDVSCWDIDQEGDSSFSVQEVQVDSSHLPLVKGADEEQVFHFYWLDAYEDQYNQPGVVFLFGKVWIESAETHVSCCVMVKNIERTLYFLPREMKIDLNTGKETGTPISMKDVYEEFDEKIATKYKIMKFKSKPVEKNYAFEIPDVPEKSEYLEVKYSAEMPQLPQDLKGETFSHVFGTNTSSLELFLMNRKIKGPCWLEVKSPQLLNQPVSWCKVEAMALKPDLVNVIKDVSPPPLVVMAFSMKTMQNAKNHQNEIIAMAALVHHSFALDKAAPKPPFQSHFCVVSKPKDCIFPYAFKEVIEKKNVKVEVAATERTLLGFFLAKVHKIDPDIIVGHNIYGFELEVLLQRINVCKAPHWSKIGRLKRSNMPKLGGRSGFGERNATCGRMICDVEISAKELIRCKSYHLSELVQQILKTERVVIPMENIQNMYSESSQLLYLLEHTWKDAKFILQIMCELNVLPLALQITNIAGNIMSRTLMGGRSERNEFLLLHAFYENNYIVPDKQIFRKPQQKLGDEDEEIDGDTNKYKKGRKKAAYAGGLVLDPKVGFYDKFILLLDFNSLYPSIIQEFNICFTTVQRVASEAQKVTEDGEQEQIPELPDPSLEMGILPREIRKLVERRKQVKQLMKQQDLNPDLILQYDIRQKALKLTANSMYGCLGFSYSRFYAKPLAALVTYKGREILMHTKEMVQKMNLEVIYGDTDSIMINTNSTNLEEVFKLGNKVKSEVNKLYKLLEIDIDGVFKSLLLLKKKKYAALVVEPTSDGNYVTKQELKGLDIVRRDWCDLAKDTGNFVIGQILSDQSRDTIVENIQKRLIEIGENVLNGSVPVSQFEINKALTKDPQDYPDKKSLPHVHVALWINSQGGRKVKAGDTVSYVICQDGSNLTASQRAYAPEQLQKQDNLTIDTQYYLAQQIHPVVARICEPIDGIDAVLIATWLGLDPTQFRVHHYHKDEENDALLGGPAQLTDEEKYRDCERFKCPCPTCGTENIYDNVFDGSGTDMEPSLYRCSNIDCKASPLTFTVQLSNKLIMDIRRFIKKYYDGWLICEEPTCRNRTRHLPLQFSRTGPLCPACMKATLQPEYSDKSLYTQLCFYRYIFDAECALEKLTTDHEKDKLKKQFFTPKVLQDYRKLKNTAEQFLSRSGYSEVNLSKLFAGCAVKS

supercoiled ΦX174 DNA = assay: unwinding and rewinding of negatively supercoiled DNA, agarose gel electrophoresis; type: biochemical
Description: Confirmation that thiocoraline and BE-22179 bind to DNA with bisintercalation was derived from their ability to induce the unwinding of negatively supercoiled DNA. This was established by their ability to gradually decrease the agarose gel electrophoresis mobility of supercoiled ΦX174 DNA (unwinding) at increasing concentrations followed by a return to normal mobility (rewinding) at even higher concentrations. Under the conditions employed, echinomycin unwound ΦX174 DNA at a 0.044 agent/base pair ratio (FIG. 11 and FIG. 12). Thiocoraline completely unwound ΦX174 DNA at a higher 0.11 agent/base pair ratio, whereas BE-22179 required even higher concentrations producing the unwinding at an agent/base pair ratio of 1.1. […] Thus, the distinctions in 1 and 2 and echinomycin detected here appear to be related to the nature of the cyclic depsipeptide and not the structure of the chromophore.
FIG. 8 is a table of comparative DNA binding properties. ^aCalf thymus DNA, KB=apparent binding constant determined by fluorescence quenching. The value in paren-theses is the agent/base pair ratio at saturated high-affinity binding and may be considered a measure of the selectivity of binding. ^bAgent/base pair ratio required to unwind negatively supercoiled FX174 DNA (form I to form II gel mobility, 0.9% agarose gel). ^cAgent/base pair ratio required to induce complete rewinding or positive super-coiling of FX174 DNA (form II to form I gel mobility, 0.9% agarose gel). ^dBinding constant established by footprinting at a 5′-CCGC site (FIG. 9).
(A) Lane 1, untreated supercoiled FX174 DNA, 95% form 1 and 5% form II; lanes 2-8, thiocoraline-treated FX174 DNA; lanes 9-14, echinomycin-treated FX174 DNA. The [agent]-to-[base pair] ratios were 0.022 (lanes 2 and 9), 0.033 (lanes 3 and 10), 0.044 (lanes 4 and 11), 0.066 (lanes 5 and 12), 0.11 (lanes 6 and 13), 0.22 (lanes 7 and 14), and 0.44 (lane 8). (B) Lane 1, untreated supercoiled FX174 DNA, lanes 2-12, BE-22179-treated FX174 DNA. The [agent]-to-[base pair] ratios were 0.022, (lane 2), 0.033 (lane 3), 0.044 (lane 4), 0.066 (lane 5), 0.11 (lane 6), 0.22 (lane 7), and 0.33 (lane 8), 0.44 (lane 9), 0.66 (lane 10), 1.1 (lane 11), and 2.2 (lane 12). (C) Lane 1, untreated supercoiled FX174 DNA, 95% form 1 and 5% form II; lanes 2-8, thiocoraline analogue (27)-treated FX174 DNA. The [agent]-to-[base pair] ratios were 0.022 (lane 2), 0.033 (lane 3), 0.044 (lane 4), 0.066 (lane 5), 0.11 (lane 6), 0.22 (lane 7), and 0.44 (lane 8).

[1] = solubility in aqueous buffer; type: physicochemical; details: aqueous Tris-HCl buffer; Tris-HCl pH 7.4, 75 mM NaCl; read-out: agent concentrations where the compounds are soluble
[2] = biological target: HIV-1 reverse transcriptase (Human immunodeficiency virus type 1 group M subtype B, UniProt P03366); assay: inhibition of HIV-1 reverse transcriptase; type: biochemical

## CSC[C@H]1C(=O)SC[C@@H](NC(=O)c2nc3ccccc3cc2O)C(=O)NCC(=O)N(C)[C@H]2CSSC[C@@H](C(=O)N1C)N(C)C(=O)CNC(=O)[C@H](NC(=O)c1nc3ccccc3cc1O)CSC(=O)[C@H](CSC)N(C)C2=O [Thiocoraline] (I: {Quinaldoyl(3-OH)}-[dC]G[NMeC][NMeC](Me) / II: {Quinaldoyl(3-OH)}-[dC]G[NMeC][NMeC](Me); thioester I:1-II:C, I:C-II:1; disulfide I:3-II:3)
DNA polymerase α
  inhibition of DNA polymerase α: does inhibit
Supercoiled ΦX174 DNA; form I to form II gel mobility
  agent/base pair ratio required to unwind supercoiled DNA: 0.11 agent/base pair ratio
Supercoiled ΦX174 DNA; form II to form I gel mobility
  agent/base pair ratio for complete rewinding of supercoiled DNA: 0.44 agent/base pair ratio
[1]
  solubility: 1 to 10 µM (≈ 1.16 to 11.6 µg/mL)
[2]
  inhibition of HIV-1 reverse transcriptase (in words): weak inhibitor
